#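 Dose response: 5 concentrations. Exposure: 48 h. Format: 96-well plates. Endpoint: linear interpolation; highest concentration if not reached. TGI: concentration producing complete growth inhibition.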
# How the values were obtained:
# Assay in all cases: DTP human tumour cell line panel, 48 h
# SK-MEL-2 melanoma = tested on: SK-MEL-2 melanoma
# ACHN renal = tested on: ACHN renal
# SN12C renal = tested on: SN12C renal
# M14 melanoma = tested on: M14 melanoma
# T-47D breast = tested on: T-47D breast
# 786-0 renal = tested on: 786-0 renal
# UACC-257 melanoma = tested on: UACC-257 melanoma
# SR leukemia = tested on: SR leukemia
# MOLT-4 leukemia = tested on: MOLT-4 leukemia
Structure (SMILES),TGI (SK-MEL-2 melanoma),TGI (ACHN renal),TGI (SN12C renal),TGI (M14 melanoma),TGI (T-47D breast),TGI (786-0 renal),TGI (UACC-257 melanoma),TGI (SR leukemia),TGI (MOLT-4 leukemia)
CCSc1nc(N/N=C/c2cccs2)c2cnn(CO)c2n1,24.4 µM,22.6 µM,30.6 µM,22.9 µM,18.5 µM,6.34 µM,26.4 µM,26.7 µM,
Nc1ccn(C2CCC(COP(=O)(O)OCC(O)COP(=O)(O)OCC3OC(n4cc(F)c(=O)[nH]c4=O)CC3O)O2)c(=O)n1 (stereo unspecified),> 100 µM,> 100 µM,> 100 µM,> 100 µM,> 100 µM,> 100 µM,> 100 µM,,> 100 µM
O=c1/c(=C/c2ccccn2)sc2nc3cc4c(cc3n12)OCCO4,> 100 µM,> 100 µM,> 100 µM,> 100 µM,> 100 µM,> 100 µM,> 100 µM,,> 100 µM
COc1ccc(N2C(=O)/C(=C/c3ccc(N(CCC#N)CCC#N)cc3)N=C2c2ccccc2)cc1,> 100 µM,> 100 µM,> 100 µM,> 100 µM,> 100 µM,> 100 µM,> 100 µM,> 100 µM,> 100 µM
C=C(C)CCC1C=[N+]([O-])OC(C)(C)C1(C)C (stereo unspecified),,> 100 µM,> 100 µM,> 100 µM,> 100 µM,> 100 µM,> 100 µM,> 100 µM,> 100 µM
CC(C)(C)OC(=O)N1N=CCC1c1ccccc1 (stereo unspecified),,> 100 µM,> 100 µM,> 100 µM,> 100 µM,> 100 µM,> 100 µM,> 100 µM,
CC#CCCCC1(C)CCNC1=S (stereo unspecified),> 10 µM,> 10 µM,> 10 µM,> 10 µM,,> 10 µM,> 10 µM,> 10 µM,> 10 µM
COc1ccc(-c2cc(-c3ccc(Nc4ccnc5cc(Cl)ccc45)cc3)[nH]c(=O)c2C#N)cc1,> 100 µM,> 100 µM,,> 100 µM,> 100 µM,> 100 µM,,> 100 µM,> 100 µM
CCNC(=S)NNC(=O)c1ccccc1Nc1ccccc1C(=O)NNC(=S)NCC,> 100 µM,> 100 µM,> 100 µM,> 100 µM,> 100 µM,> 100 µM,,> 100 µM,> 100 µM
CC(=O)NC(C)(C)C1CCC(C)CC1 (stereo unspecified),,> 100 µM,> 100 µM,> 100 µM,,> 100 µM,> 100 µM,> 100 µM,> 100 µM
O=c1[nH]c2ccc(CC(=S)N3CCOCC3)cc2o1,> 100 µM,> 100 µM,,> 100 µM,,> 100 µM,> 100 µM,> 100 µM,> 100 µM
O=C1CC(c2ccccc2)n2c(nc3ccccc32)N1 (stereo unspecified),47.9 µM,> 100 µM,,> 100 µM,> 100 µM,> 100 µM,> 100 µM,> 100 µM,> 100 µM
COC(=O)c1ccccc1C1CN=NC12Cc1ccc3c(c1C2=O)CCC3 (stereo unspecified),> 100 µM,> 100 µM,> 100 µM,> 100 µM,> 100 µM,> 100 µM,> 100 µM,,> 100 µM

# Source: PubChem BioAssay (NCI)
